{"source": "patent US20260191843A1", "about": "“METHODS AND MATERIALS FOR TREATING BURNS” (The Penn State Research Foundation, priority 2022, published 2026)", "key": {"[1]": {"tested_on": "deep-partial thickness burn wound on the mouse dorsum", "assay": "Burn wound healing in mice: wound area and percentage of wound closure", "format": "in vivo, wild-type C57BL/6 mouse", "procedure": "(§1) Place the 8-10-week-old wild-type C57BL/6 mouse on its side on a sterile paper sheet. Anesthesia was achieved and maintained with isoflurane utilizing an induced with an intraperitoneal injection of ketamine (60 mg/kg) and xylazine (4 mg/kg). An adequate depth of anesthesia was ensured via lack of a withdrawal reflex when a toe pinch was performed. The depth of anesthesia was monitored as well as respiration and mucous membrane color (pink: normal, pale: blood loss, blue: cyanosis). The surgeon(s) used sterile gloves, mask and a clean lab coat. Sterile surgical instruments (autoclaved) were used during all survival surgeries. The skin was prepared for creation of wound on the dorsal and side skin (from neck to tail) by shaving with a mechanical shaver and then applying a hair removal cream on the skin for 3-5 minutes. Hair was removed completely by gently wiping the skin with cotton balls soaked in warm water. Skin disinfection around the incision site was done using 70% ethanol and betadine for 3 times. Then, the dorsal skin was folded and raised cranially and caudally at the midline using index fingers and thumbs, and the animal was placed in a lateral position. The burn wound was created by contacting a 10 mm diameter brass heating device maintained at 100° C. to the mouse dorsum at a constant pressure. The device remained in contact with the skin for 4 seconds in order to create a deep-partial thickness burn. After burn wound creation, the wound site was photographed, the wound area was circled using permanent pen marker, and the wound surface was covered with a TEGADERM™ (3M) sterile transparent dressing. After surgery, mice were given SR Buprenorphine (0.05 mg/kg) for post-operative analgesia. Then, mice were placed in a clean cage on the heating pad for 30 minutes to help the recovery process. Immediately after the recovery, mice were randomly grouped and treated with either with 4-AP (systemic, ip) or saline (control).\nFunctional analysis of the burn wound area was performed by placing a transparent sheet on the surface of the circled wound, and placing a ruler close to the burn wound to capture photographs of individual wounds on 0, 3, 7, 10, 14, 18, 21, and 26 days. The wound size of each individual mice was measured and compared to zero day wound diameter from the circled sheet. The percentage of wound closure was calculated using this formula: (area of original wound-area of the actual burn wound)/area of original burn wound×100."}, "[2]": {"tested_on": "deep-partial thickness burn wound on the mouse dorsum", "assay": "Morphometric burn wound healing assessment at day 26 (H&E and Masson's trichrome staining)", "format": "in vivo, wild-type C57BL/6 mouse", "procedure": "as §1, with “(control). […]” for “(control).”"}, "[3]": {"details": "4-AP treated vs saline-treated mice"}}, "note": "“Also recorded” adds a separate entry of the source."}
{"smiles": "Nc1ccncc1", "note": "[4-AP, 4-aminopyridine]", "values": [{"measurement": "acceleration of wound closure", "setting": "[1]; by day 3, systemic 4-AP vs saline, P between 0.01 and 0.05", "result": "significant increase in wound closure by day 3; also recorded: accelerated wound closure by day 3"}, {"measurement": "closed wounds", "setting": "[1]; by day 26, systemic 4-AP", "result": "closed wounds by day 26"}, {"measurement": "reduced wound area (relative to initial wound area)", "setting": "[1]; day 5, systemic (ip) 4-AP, saline treated animals showed 25% expansion of wound area", "result": 5, "unit": "%"}, {"measurement": "protection from expansion of wound size (necrosis and apoptosis at zone of stasis)", "setting": "[1]; systemic 4-AP vs saline", "result": "significant burn wound protection from expansion of wound; also recorded: significantly prevented expansion of wound size"}, {"measurement": "burn wound closure and tissue regeneration as compared to control animals", "setting": "[1]; systemic 4-AP vs systemic saline", "result": "improved burn wound closure and tissue regeneration"}, {"measurement": "collagen deposition in the healing wound (Masson's Trichrome)", "setting": "[2]; [3]", "result": "elevated collagen deposition"}, {"measurement": "thickness of newly formed epidermis within the healed wound (H&E)", "setting": "[2]; [3]", "result": "significantly thicker"}, {"measurement": "re-epithelialization", "setting": "[2]; not completed in saline-treated mice", "result": "re-epithelialization was complete"}]}
